Test [1] deals with Tankyrase. Description: Measurement of cellular inhibition of Tankyrase (Axin2 level in DLD1 cells, Luminex based assay). The note with it: for pEC50: prior art compounds. The test is classed as cell-based. On the procedure:
(§1) Measurement of Cellular Inhibition of Tankyrase
(§2) Cells of the colon carcinoma cell line DLD1 are plated in 96 well plates with 1.5×10^4 cells per well. Next day, cells are treated with a serial dilution of test compound in seven steps as triplicates with a final DMSO concentration of 0.3%. […] The amount of isolated Axin2 protein is determined in a Luminex^200 machine (Luminex Corporation) according to the manufacturer's instruction by counting 100 events per well. […] As controls cells are treated with solvent alone (neutral control) and with a Tankyrase reference inhibitor IWR-2 (3E-06 M) which refers as control for maximum increase of Axin2. For analysis, the obtained data are normalized against the untreated solvent control and fitted for determination of the EC50 values using the Assay Explorer software (Accelrys).

The target in another test is T1, TNKS1 (Homo sapiens, UniProt O95271).
T1 construct: GST-tagged Tnks-1 (1023-1327 aa, prepared in-house); made in house
T1 sequence (O95271 1023-1327): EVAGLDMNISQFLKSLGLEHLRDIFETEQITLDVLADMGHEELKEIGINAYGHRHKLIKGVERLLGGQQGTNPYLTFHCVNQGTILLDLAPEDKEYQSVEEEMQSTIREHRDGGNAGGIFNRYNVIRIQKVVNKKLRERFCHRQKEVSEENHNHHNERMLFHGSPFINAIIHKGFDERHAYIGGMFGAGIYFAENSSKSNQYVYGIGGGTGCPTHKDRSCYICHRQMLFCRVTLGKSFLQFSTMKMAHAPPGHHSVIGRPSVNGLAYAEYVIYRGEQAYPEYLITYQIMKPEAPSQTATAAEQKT
Description: TNKS1 activity ELISA (autoparsylation assay). The note with it: for IC50: GST-tagged Tnks-1, read-out: IC50 [M] TNKS1 ELISA. The test is classed as biochemical. On the procedure: (§3) Description of the TNKS1 and TNKS2 ELISA Assay
(§4) Biochemical Activity Testing of TNKS 1 and 2: Activity ELISA (Autoparsylation Assay)
(§5) For analysis of autoparsylation activity of TNKS 1 and 2 an activity ELISA iss performed: In the first step GST tagged TNKS is captured on a Glutathione coated plate. Then the activity assay with biotinylated NAD is performed in the absence/presence of the compounds. During the enzymatic reaction GST tagged TNKS transfers biotinylated ADP-ribose to itself from biotinylated NAD as co-substrate. For the detection streptavidin-HRP conjugate is added that binds to the biotinylated TNKS and is thereby captured to the plates. The amount of biotinylated resp. autoparsylated TNKS is detected with a luminescence substrate for HRP. The level of the luminescence signal correlates directly with the amount of autoparsylated TNKS and therefore with activity of TNKS.
(§6) The activity ELISA is performed in 384 well Glutathione coated microtiter plates (Express capture Glutathione coated plate, Biocat, Heidelberg, Germany). The plates are pre-equilibrated with PBS. […] The plates are washed 3 times with PBS-Tween-20. The wells are blocked by incubation at room temperature for 20 minutes with 50 μl blocking buffer (PBS, 0.05% Tween-20, 0.5% BSA). Afterwards the plates are washed 3 times with PBS-Tween-20. […] The reaction is stopped by 3 times washing with PBS-Tween-20. For the detection 50 μl of 20 ng/μl Streptavidin, HRP conjugate (MoBiTec, Göttingen, Germany) in PBS/0.05% Tween-20/0.01% BSA are added and the plates are incubated for 30 minutes at room temperature. After three times washing with PBS-Tween-20 50 μl of SuperSignal ELISA Femto Maximum sensitivity substrate solution (ThermoFisherScientific (Pierce), Bonn, Germany) are added. Following a 1 minute incubation at room temperature luminescence signals are measured with an Envision multimode reader (Perkin Elmer LAS Germany GmbH) at 700 nm. The full value used is the inhibitor-free reaction. […] The inhibitory values (IC50) are determined using either the program Symyx Assay Explorer® or Condosseo® from GeneData.
A general note: ELISA stands for enzyme-linked immunosorbent assay.

A further test deals with T2, TNKS2 (Homo sapiens, UniProt Q9H2K2).
T2 construct: GST-tagged Tnks-2 (873-1166 aa, prepared in-house); made in house
T2 sequence (Q9H2K2 873-1166): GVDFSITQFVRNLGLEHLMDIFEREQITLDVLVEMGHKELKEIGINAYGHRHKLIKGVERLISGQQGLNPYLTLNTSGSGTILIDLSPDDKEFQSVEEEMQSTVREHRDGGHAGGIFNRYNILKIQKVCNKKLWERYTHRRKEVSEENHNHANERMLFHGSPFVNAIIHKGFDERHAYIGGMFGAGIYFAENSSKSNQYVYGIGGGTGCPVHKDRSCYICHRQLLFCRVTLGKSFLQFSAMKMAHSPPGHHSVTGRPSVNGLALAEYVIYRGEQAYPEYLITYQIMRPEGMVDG
Put plainly: TNKS2 activity ELISA (autoparsylation assay). The format is biochemical. The note with it: for IC50: GST-tagged Tnks-2, read-out: IC50 [M] TNKS2 ELISA. As for the experimental part: as §3, §4, §5, §6

For a further test, the system named is DLD-1-cancer cells. The note with it: Huang et al., 2009; cited from earlier work.
The subject of the next test is β-catenin. As to conditions: by increasing the levels of AXIN1 and AXIN2 proteins; cited from earlier work.
The subject of test [2] is T3, Tankyrase.
T3 construct: TNKS cellular assay; other: DLD1 cells, Axin2 increase, 24 hours
Put plainly: Measurement of cellular inhibition of Tankyrase (Axin2 level in DLD1 cells, Luminex based assay). The format is cell-based. As to conditions: read-out: EC50 [M] TNKS cellular assay; DLD1 cells, Axin2 increase, 24 hours. On the procedure: as §1, §2

For the next test, the target named is T4, PARP-1 (Homo sapiens, UniProt P09874).
T4 construct: purchased Enzo Life Sciences GmbH, Lörrach, Germany
T4 sequence (P09874 whole entry): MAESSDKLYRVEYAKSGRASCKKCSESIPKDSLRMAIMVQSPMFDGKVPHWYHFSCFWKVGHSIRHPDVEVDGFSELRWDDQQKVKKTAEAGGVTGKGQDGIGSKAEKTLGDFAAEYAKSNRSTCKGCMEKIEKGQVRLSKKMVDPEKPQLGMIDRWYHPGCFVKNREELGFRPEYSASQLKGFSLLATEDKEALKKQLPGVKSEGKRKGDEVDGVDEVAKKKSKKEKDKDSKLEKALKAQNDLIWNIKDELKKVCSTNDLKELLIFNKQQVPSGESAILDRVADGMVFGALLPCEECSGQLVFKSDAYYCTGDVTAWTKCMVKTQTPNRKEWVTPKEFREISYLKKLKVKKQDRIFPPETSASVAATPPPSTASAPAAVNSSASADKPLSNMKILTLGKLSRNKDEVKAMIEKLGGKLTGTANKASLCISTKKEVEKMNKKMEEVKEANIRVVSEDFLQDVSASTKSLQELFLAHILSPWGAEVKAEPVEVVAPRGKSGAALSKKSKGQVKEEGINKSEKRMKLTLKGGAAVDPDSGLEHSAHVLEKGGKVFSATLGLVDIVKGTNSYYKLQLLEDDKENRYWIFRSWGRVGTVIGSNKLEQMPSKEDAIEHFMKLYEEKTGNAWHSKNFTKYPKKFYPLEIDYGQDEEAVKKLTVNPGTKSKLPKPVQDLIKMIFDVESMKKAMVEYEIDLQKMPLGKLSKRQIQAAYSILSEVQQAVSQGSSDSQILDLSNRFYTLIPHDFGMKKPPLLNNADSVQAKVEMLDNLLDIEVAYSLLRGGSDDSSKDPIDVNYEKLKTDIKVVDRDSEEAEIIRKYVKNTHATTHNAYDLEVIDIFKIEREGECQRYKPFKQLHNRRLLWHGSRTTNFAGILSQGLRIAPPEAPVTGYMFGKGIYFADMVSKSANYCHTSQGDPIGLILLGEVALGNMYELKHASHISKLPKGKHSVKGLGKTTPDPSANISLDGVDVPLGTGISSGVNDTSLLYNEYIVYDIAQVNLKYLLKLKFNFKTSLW
Description: PARP-1 autoparsylation assay (HTRF). The note with it: His-tagged Parp-1, autoparsylation. The format is biochemical. A general note: In TR-FRET formats the signal depends on donor and acceptor labels being close together.

Where [3] appears, read: prior art compounds, read-out: IC50 (TNKS1).

The values that follow come from US9901577B2, “Oxoquinazolinyl-butanamide derivatives” (MERCK PATENT GMBH, priority 2013, dated 2018).

pEC50, pIC50: −log10 of the molar value. Read-outs that look alike come from different tables or passages of the source.

On to `O=c1[nH]c(-c2ccc3c(c2)OCO3)nc2ccccc12` [reference compound], for which, in the test on Tankyrase [1] (at 30 μM, prior art compound), the “cellular assay: effect” value is given as “no effect”. Moreover, the pIC50 at TNKS1 (setting [3]) was 6.23; at TNKS2 (prior art compounds, read-out: IC50 (TNKS2)), 6.22.
As for `COc1ccccc1NC(=O)c1ccc(NC(=O)CCc2nc3ccccc3c(=O)[nH]2)cc1` [reference compound], in the test on Tankyrase [1], the pEC50 was 6.49. The negative-log IC50 (pIC50) at TNKS1 (setting [3]) was 8.13.
As for `Oc1nc(-c2ccc(C(F)(F)F)cc2)nc2c1CSCC2` [XAV939], the “growth of DLD-1-cancer cells” value with DLD-1-cancer cells is “inhibits growth”. Also, in the test on β-catenin, the “Wnt-stimulated accumulation of β-catenin” value is reported as “blocked Wnt-stimulated accumulation of β-catenin”.
Turning to `COc1ccc(C(=O)C2CCN(CC(=O)N(Cc3nc4c(c(=O)[nH]3)COCC4)CC3CC3)CC2)cc1` [reference compound], the pEC50 in the test with Tankyrase [1] was 7.46. Further, the pIC50 on TNKS1 (setting [3]) is 8.70.
As for `O=C(c1ccc(F)cc1)C1CCN(C(=O)CCCc2nc3c(F)cccc3c(=O)[nH]2)CC1` [Compound A28, 8-Fluoro-2-{4-[4-(4-fluoro-benzoyl)-piperidin-1-yl]-4-oxo-butyl}-3H-quinazolin-4-one], the EC50 in the test with Tankyrase [2] amounted to 4.2e-08 M. Besides, the IC50 came out at 3300 nM against PARP-1, 8.7e-10 M on TNKS1 and 6.2e-10 M at TNKS2.
For the compound `COc1ccc(C(=O)C2CCN(C(=O)CCCc3nc4ccccc4c(=O)[nH]3)CC2)cc1` [Compound A1, 2-{4-[4-(4-methoxy-benzoyl)-piperidin-1-yl]-4-oxo-butyl}-3H-quinazolin-4-one], the EC50 in the test on Tankyrase [2] was 1.6e-09 M. The compound also had an IC50 on PARP-1 of 1400 nM. Moreover, the values for the pIC50 at TNKS1 and at TNKS2 were 9.64 and 9.96, respectively.
Consider `Nc1ncc(C2CCN(C(=O)CCCc3nc4c(F)cccc4c(=O)[nH]3)CC2)cc1-c1ncccn1` [Compound A35, 2-[4-(6-Amino-5-pyrimidin-2-yl-3′,4′,5′,6′-tetrahydro-2′H-[3,4]bipyridinyl-1′-yl)-4-oxo-butyl]-8-fluoro-3H-quinazolin-4-one], for which, in the test with Tankyrase [2], the concentration giving a half-maximal response (EC50) amounted to 1.8e-09 M. Also, the IC50 came to 1400 nM against PARP-1, 4.9e-10 M at TNKS1 and 1.6e-10 M at TNKS2.

What is called pIC50 is the negative decadic logarithm of the IC50, by convention in mol/L. For orientation: pEC50 means the EC50 on a negative log10 scale, so that one unit is a factor of ten. As usually defined, the EC50 is the concentration that produces a half-maximal response. The term IC50 denotes the concentration that inhibits the measured activity by half.
